In ChEMBL document CHEMBL1155411, “Design of two new chemotypes for inhibiting the Janus kinase 2 by scaffold morphing” (Bioorg Med Chem Lett, 2010) one finds IC50 data, which are given here for one molecule.

For the test, the target named is Tyrosine-protein kinase JAK2 (Homo sapiens, UniProt O60674). Nature of the test: Inhibition of recombinant GST tagged JAK2 after 60 mins by Caliper mobility shift assay.

Structures are written as SMILES.

Sequence of Tyrosine-protein kinase JAK2 (O60674 whole entry): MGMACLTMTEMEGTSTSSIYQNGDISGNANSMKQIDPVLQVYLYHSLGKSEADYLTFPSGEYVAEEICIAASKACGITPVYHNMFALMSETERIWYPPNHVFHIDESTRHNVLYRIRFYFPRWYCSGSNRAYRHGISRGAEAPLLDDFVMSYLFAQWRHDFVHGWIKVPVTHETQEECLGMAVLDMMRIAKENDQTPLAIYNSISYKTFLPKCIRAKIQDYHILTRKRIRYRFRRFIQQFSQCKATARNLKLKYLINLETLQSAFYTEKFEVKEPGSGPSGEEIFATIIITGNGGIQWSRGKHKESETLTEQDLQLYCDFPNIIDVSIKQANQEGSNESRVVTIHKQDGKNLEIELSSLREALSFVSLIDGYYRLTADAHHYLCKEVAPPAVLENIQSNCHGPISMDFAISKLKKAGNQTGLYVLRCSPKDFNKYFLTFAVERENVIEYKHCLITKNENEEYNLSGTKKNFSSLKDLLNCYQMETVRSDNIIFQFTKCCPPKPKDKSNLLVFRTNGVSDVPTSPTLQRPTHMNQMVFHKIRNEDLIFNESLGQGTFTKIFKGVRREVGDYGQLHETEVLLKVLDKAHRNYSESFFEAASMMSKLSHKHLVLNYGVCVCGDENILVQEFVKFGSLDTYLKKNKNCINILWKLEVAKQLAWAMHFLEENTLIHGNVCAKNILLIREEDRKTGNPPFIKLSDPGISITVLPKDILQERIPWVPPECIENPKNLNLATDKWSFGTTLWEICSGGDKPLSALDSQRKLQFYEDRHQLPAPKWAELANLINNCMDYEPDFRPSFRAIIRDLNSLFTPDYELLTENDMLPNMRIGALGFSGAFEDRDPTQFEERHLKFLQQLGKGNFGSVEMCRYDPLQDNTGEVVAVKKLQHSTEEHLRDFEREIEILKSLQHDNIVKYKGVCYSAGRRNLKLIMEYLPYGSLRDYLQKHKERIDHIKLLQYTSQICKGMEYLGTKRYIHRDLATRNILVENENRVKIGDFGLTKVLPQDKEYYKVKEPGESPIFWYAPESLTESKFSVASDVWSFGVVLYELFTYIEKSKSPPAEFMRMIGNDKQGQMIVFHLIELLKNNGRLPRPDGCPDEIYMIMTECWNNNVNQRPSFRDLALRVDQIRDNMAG

As usually defined, the IC50 is the concentration needed to halve the response being measured. As to `COc1cc(Nc2ncc3ccn(-c4ccccn4)c3n2)cc(OC)c1OC`, the IC50 worked out at 5.9 nM.
